O=C(N[C@H](Cc1ccccc1)C(=O)O)OCC1c2ccccc2-c2ccccc21
solubility (mole fraction)
Details | 283.15 K | 288.15 K | 293.15 K | 298.15 K | 303.15 K | 308.15 K | 313.15 K | 318.15 K | 323.15 K
in 2-butanone | 0.00646 | 0.00728 | 0.00803 | 0.00895 | 0.00993 | 0.0112 | 0.0133 | 0.015 | 0.017
in acetone | 0.00728 | 0.00759 | 0.00837 | 0.00931 | 0.0109 | 0.0128 | 0.0146 | 0.0164 | 0.0193
in acetonitrile | 0.000619 | 0.00066 | 0.000723 | 0.00084 | 0.000952 | 0.00117 | 0.00138 | 0.00168 | 0.00203
in ethanol | 0.00161 | 0.00173 | 0.00187 | 0.00205 | 0.0024 | 0.00278 | 0.00324 | 0.004 | 0.00515
in ethyl acetate | 0.00272 | 0.003 | 0.00342 | 0.00379 | 0.00443 | 0.00504 | 0.00571 | 0.00682 | 0.00793
in isopropanol | 0.000943 | 0.00103 | 0.00114 | 0.00126 | 0.00155 | 0.00208 | 0.00263 | 0.00311 | 0.00375

— BigSolDB 2.1
